Read-outs that look alike come from different tables or passages of the source. Values belong to the compound of their own block, whether it stands above or below them. *1 amine or outer side, *2 acyl side, *3 side chain or, on linkers, in order; H or OH if unused. Where a SMILES comes first, the peptide text is derived from it. Side-chain parts run from the residue outwards. [ ]: non-standard residue; d: D form. The star is where a group is joined. C20 diacid = O=C(O)CCCCCCCCCCCCCCCCCCC(=O)*; γGlu = O=C(O)[C@H](CCC(=O)[*:2])N[*:1]; AEEA = NCCOCCOCC(=O)O; Aib = CC(C)(N)C(=O)O
Experiments:
human GLP-2 receptor = target: T1, human GLP-2 receptor (Homo sapiens, UniProt O95838, D470N); experiment: GLP-2 receptor potency assay (cAMP ALPHASCREEN, HEK293 cells stably expressing GLP-2 R); assay type: cell-based
T1 construct: expressed in transfected cells
T1 sequence (O95838 1-553 D470N): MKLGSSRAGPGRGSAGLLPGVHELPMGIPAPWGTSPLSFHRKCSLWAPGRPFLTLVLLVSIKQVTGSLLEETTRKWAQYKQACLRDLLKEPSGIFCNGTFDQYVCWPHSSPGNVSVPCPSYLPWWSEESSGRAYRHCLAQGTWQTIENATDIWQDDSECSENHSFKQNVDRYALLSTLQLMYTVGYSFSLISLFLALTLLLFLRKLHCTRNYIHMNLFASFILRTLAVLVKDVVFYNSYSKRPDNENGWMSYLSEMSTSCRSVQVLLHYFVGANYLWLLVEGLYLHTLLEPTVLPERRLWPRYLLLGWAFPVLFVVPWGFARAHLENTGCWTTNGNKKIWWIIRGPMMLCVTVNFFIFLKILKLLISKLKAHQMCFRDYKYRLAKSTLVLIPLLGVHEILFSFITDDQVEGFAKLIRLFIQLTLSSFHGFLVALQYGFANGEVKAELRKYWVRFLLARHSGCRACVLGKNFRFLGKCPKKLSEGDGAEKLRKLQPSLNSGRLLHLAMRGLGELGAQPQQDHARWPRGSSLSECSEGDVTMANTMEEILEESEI
From the text: One useful in vitro assay for measuring GLP-1 and GLP-2 receptor activity is quantitation of cAMP, i.e. 3′-5′-cyclic adenosine monophosphate, which is a second messenger essential in many biological processes, and one of the most ubiquitous mechanisms for regulating cellular functions.
For subcloning into a mammalian expression vector, primers for subcloning were obtained from DNA-Technology, Risskov, Denmark. The 5′ and 3′ primers used for the PCR reaction include terminal restriction sites for cloning and the context of the 5′ primer is modified to a Kozak consensus without changing the sequence of the product encoded by the ORF. […] The generated PCR product was purified using GFX PCR and Gel band purification kit, digested with restriction enzymes and cloned into the mammalian expression vector using Rapid DNA Ligation Kit. Ligation reaction was transformed to XL10 Gold Ultracompetent cells and colonies were picked for DNA production using ENDOFREE® Plasmid maxi kit. Subsequent sequence analysis was conducted by MWG Eurofins, Germany.
HEK293 cells were transfected using the LIPOFECTAMINE® PLUS transfection method. The day before transfection, HEK293 cells were seeded in two T75 flasks at a density of 2×10^6 cells/T75 flask in cell culturing medium without antibiotics. On the day of transfection, cells were washed with 1× DPBS and medium was replaced with OPTI-MEM© to a volume of 5 mL/T75 flask before addition of LIPOFECTAMINE®-plasmid complexes were added gently and drop wise to the cells in T75 flasks and replaced with growth medium after 3 hours and again to growth medium supplemented with 500 μg/mL G418 after 24 hours. Following 4 weeks in G418 selection, clones were picked and tested in a functional GLP-2 receptor potency assay as described below.
The cAMP ALPHASCREEN® assay from Perkin Elmer was used to quantitate the cAMP response to activation of the GLP1 and GLP2 receptor, respectively. […] Data from test compounds eliciting an increase in the intracellular level of cAMP were normalized relative to the positive and negative control (vehicle) to calculate the EC50 and maximal response from the concentration response curve.

[1] = Chemical stability (RP-HPLC normalized purity after incubation at 40° C.); assay type: physicochemical; settings: pH 7, 40° C., 14-day incubation, 0.2 mg/ml, normalized purity (area-%)
Method in brief: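 Peptide at 0.2 mg/ml final in water adjusted to pH 6, 7, 7.5 or 9, incubated at 40° C for 14 days. Purity measured as main-peak area-% by C18 RP-HPLC (acetonitrile/TFA/water gradient, UV 220 nm) and normalized to T=0 set at 100 for each pH.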

[2] = Solubility assessment (turbidity absorbance at 325 nm); assay type: physicochemical
Method in brief: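 Peptide stock at 2 mg/ml in water at pH 2.5 diluted 1:1 into 100 mM acetate (pH 4.0, 5.0), histidine (pH 6.0, 7.0) or phosphate (pH 6.0, 7.0, 7.5) buffer. Absorbance at 280 and 325 nm read at ambient temperature (typically 25 °C), single samples (n=1).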

[3] = cAMP response, HEK293 cells expressing human GLP-2 R, read-out: EC50 GLP-2

EC50 (human GLP-2 receptor; [3]): 0.33 nM
pH 7 normalized stability [1]: A (>90% normalised stability)
Compound: CC[C@H](C)[C@H](NC(=O)[C@H](Cc1ccccc1)NC(=O)[C@H](CC(=O)O)NC(=O)[C@H](CCCNC(=N)N)NC(=O)[C@H](C)NC(=O)[C@H](C)NC(=O)[C@H](CCC(N)=O)NC(=O)[C@H](CCC(=O)O)NC(=O)[C@H](CC(=O)O)NC(=O)[C@H](CC(C)C)NC(=O)[C@@H](NC(=O)[C@@H](NC(=O)[C@H](C)NC(=O)[C@H](CCCCNC(=O)COCCOCCNC(=O)COCCOCCNC(=O)CC[C@H](NC(=O)CCCCCCCCCCCCCCCCCCC(=O)O)C(=O)O)NC(=O)[C@H](CCC(=O)O)NC(=O)[C@H](CO)NC(=O)[C@@H](NC(=O)[C@H](Cc1ccccc1)NC(=O)[C@H](CO)NC(=O)CNC(=O)[C@H](CCC(=O)O)NC(=O)C(C)(C)NC(=O)[C@@H](N)Cc1c[nH]cn1)[C@@H](C)O)[C@@H](C)O)[C@@H](C)CC)C(=O)N[C@@H](C)C(=O)N[C@@H](Cc1c[nH]c2ccccc12)C(=O)N[C@@H](CC(C)C)C(=O)N[C@H](C(=O)N[C@@H](CCC(=O)O)C(=O)N[C@@H](Cc1c[nH]cn1)C(=O)N[C@@H](CCCCN)C(=O)N[C@H](C(=O)N[C@H](C(=O)N[C@@H](CC(=O)O)C(=O)O)[C@@H](C)O)[C@@H](C)CC)[C@@H](C)CC [Compound 42] (H-H[Aib]EGSFTSEK([AEEA-AEEA-γGlu-C20 diacid])ATILDEQAARDFIAWLIEHKITD-OH)

Compound: CC[C@H](C)[C@H](NC(=O)[C@H](Cc1ccccc1)NC(=O)[C@H](CC(=O)O)NC(=O)[C@H](CCCNC(=N)N)NC(=O)[C@H](C)NC(=O)[C@H](C)NC(=O)[C@H](CCCCN)NC(=O)[C@H](CCCCNC(=O)CC[C@H](NC(=O)CCCCCCCCCCCCCCCCC(=O)O)C(=O)O)NC(=O)[C@H](CC(=O)O)NC(=O)[C@H](CC(C)C)NC(=O)[C@@H](NC(=O)[C@@H](NC(=O)[C@H](C)NC(=O)[C@H](CC(C)C)NC(=O)[C@H](CCC(=O)O)NC(=O)[C@H](CO)NC(=O)[C@H](CO)NC(=O)[C@H](Cc1ccccc1)NC(=O)[C@@H](NC(=O)CNC(=O)[C@H](CCC(=O)O)NC(=O)C(C)(C)NC(=O)[C@@H](N)Cc1c[nH]cn1)[C@@H](C)O)[C@@H](C)O)[C@@H](C)CC)C(=O)N[C@@H](C)C(=O)N[C@@H](Cc1c[nH]c2ccccc12)C(=O)N[C@@H](CC(C)C)C(=O)N[C@H](C(=O)N[C@@H](CCC(=O)O)C(=O)N[C@@H](Cc1c[nH]cn1)C(=O)N[C@@H](CCCCN)C(=O)N[C@H](C(=O)N[C@H](C(=O)N[C@@H](CC(=O)O)C(=O)O)[C@@H](C)O)[C@@H](C)CC)[C@@H](C)CC [Compound 4] (HELM PEPTIDE1{H.[Aib].E.G.T.F.S.S.E.L.A.T.I.L.D.K.K.A.A.R.D.F.I.A.W.L.I.E.H.K.I.T.D}|PEPTIDE2{[O=C(O)CCCCCCCCCCCCCCCCC(=O)[*:2]].[gGlu]}$PEPTIDE1,PEPTIDE2,16:R3-2:R2$$$V2.0)
EC50 (human GLP-2 receptor): 0.087 nM

EC50 (human GLP-2 receptor; [3]): 0.33 nM
solubility ([2]; 100 mM acetate buffer pH 4.0, ambient temperature, read-out: Solubility Acetate buffer pH 4): < 1000 µg/mL
solubility ([2]; 100 mM acetate buffer pH 5.0, ambient temperature, read-out: Solubility Acetate buffer pH 5): < 1000 µg/mL
solubility ([2]; 100 mM histidine buffer pH 6.0, ambient temperature, read-out: Solubility Histidine buffer pH 6): ≥ 1000 µg/mL
solubility ([2]; 100 mM histidine buffer pH 7.0, ambient temperature, read-out: Solubility Histidine buffer pH 7): ≥ 1000 µg/mL
solubility ([2]; 100 mM phosphate buffer pH 6.0, ambient temperature, read-out: Solubility Phosphate buffer pH 6): ≥ 1000 µg/mL
solubility ([2]; 100 mM phosphate buffer pH 7.0, ambient temperature, read-out: Solubility Phosphate buffer pH 7): ≥ 1000 µg/mL
solubility ([2]; 100 mM phosphate buffer pH 7.5, ambient temperature, read-out: Solubility Phosphate buffer pH 7.5): ≥ 1000 µg/mL
Compound: CC[C@H](C)[C@H](NC(=O)[C@H](Cc1ccccc1)NC(=O)[C@H](CC(=O)O)NC(=O)[C@H](CCCNC(=N)N)NC(=O)[C@H](C)NC(=O)[C@H](C)NC(=O)[C@H](CCC(N)=O)NC(=O)[C@H](CCCCNC(=O)CC[C@H](NC(=O)CCCCCCCCCCCCCCCCC(=O)O)C(=O)O)NC(=O)[C@H](CC(=O)O)NC(=O)[C@H](CC(C)C)NC(=O)[C@@H](NC(=O)[C@@H](NC(=O)[C@H](C)NC(=O)[C@H](CC(C)C)NC(=O)[C@H](CCC(=O)O)NC(=O)[C@H](CO)NC(=O)[C@H](CO)NC(=O)[C@H](Cc1ccccc1)NC(=O)[C@@H](NC(=O)CNC(=O)[C@H](CCC(=O)O)NC(=O)C(C)(C)NC(=O)[C@@H](N)Cc1c[nH]cn1)[C@@H](C)O)[C@@H](C)O)[C@@H](C)CC)C(=O)N[C@@H](C)C(=O)N[C@@H](Cc1c[nH]c2ccccc12)C(=O)N[C@@H](CC(C)C)C(=O)N[C@H](C(=O)N[C@@H](CCC(N)=O)C(=O)N[C@@H](Cc1c[nH]cn1)C(=O)N[C@@H](CCCCN)C(=O)N[C@H](C(=O)N[C@H](C(=O)N[C@@H](CC(=O)O)C(=O)O)[C@@H](C)O)[C@@H](C)CC)[C@@H](C)CC [Compound 17] (HELM PEPTIDE1{H.[Aib].E.G.T.F.S.S.E.L.A.T.I.L.D.K.Q.A.A.R.D.F.I.A.W.L.I.Q.H.K.I.T.D}|PEPTIDE2{[O=C(O)CCCCCCCCCCCCCCCCC(=O)[*:2]].[gGlu]}$PEPTIDE1,PEPTIDE2,16:R3-2:R2$$$V2.0)

EC50 (human GLP-2 receptor; [3]): 0.083 nM
Compound: CC[C@H](C)[C@H](NC(=O)[C@H](Cc1ccccc1)NC(=O)[C@H](CC(=O)O)NC(=O)[C@H](CCCNC(=N)N)NC(=O)[C@H](C)NC(=O)[C@H](C)NC(=O)[C@H](CCC(N)=O)NC(=O)[C@H](CCCCNC(=O)COCCOCCNC(=O)[C@H](CCCCN)NC(=O)[C@H](CCC(=O)O)NC(=O)[C@H](CCCCN)NC(=O)CC[C@H](NC(=O)CCCCCCCCCCCCCCCCCCC(=O)O)C(=O)O)NC(=O)[C@H](CC(=O)O)NC(=O)[C@H](CC(C)C)NC(=O)[C@@H](NC(=O)[C@@H](NC(=O)[C@H](C)NC(=O)[C@H](CC(C)C)NC(=O)[C@H](CCC(=O)O)NC(=O)[C@H](CO)NC(=O)[C@@H](NC(=O)[C@H](Cc1ccccc1)NC(=O)[C@H](CO)NC(=O)CNC(=O)[C@H](CCC(=O)O)NC(=O)C(C)(C)NC(=O)[C@@H](N)Cc1c[nH]cn1)[C@@H](C)O)[C@@H](C)O)[C@@H](C)CC)C(=O)N[C@@H](C)C(=O)N[C@@H](Cc1c[nH]c2ccccc12)C(=O)N[C@@H](CC(C)C)C(=O)N[C@H](C(=O)N[C@@H](CCC(=O)O)C(=O)N[C@@H](Cc1c[nH]cn1)C(=O)N[C@@H](CCCCN)C(=O)N[C@H](C(=O)N[C@H](C(=O)N[C@@H](CC(=O)O)C(=O)O)[C@@H](C)O)[C@@H](C)CC)[C@@H](C)CC [Compound 57] (HELM PEPTIDE1{H.[Aib].E.G.S.F.T.S.E.L.A.T.I.L.D.K.Q.A.A.R.D.F.I.A.W.L.I.E.H.K.I.T.D}|PEPTIDE2{[O=C(O)CCCCCCCCCCCCCCCCCCC(=O)[*:2]].[gGlu].K.E.K.[O=C(COCCOCCN[*:1])[*:2]]}$PEPTIDE1,PEPTIDE2,16:R3-6:R2$$$V2.0)
